Measured values published in ChEMBL document CHEMBL4270496, “How to train your inhibitor: Design strategies to overcome resistance to Epidermal Growth Factor Receptor inhibitors” (Eur J Med Chem, 2017).

Tests used:
NCI-H1975 [1] = experiment: Antiproliferative activity against human NCI-H1975 cells expressing EGFR T790M/L858R mutant incubated for 72 hrs by MTS assay; type: functional, cell-based; settings: NCI-H1975, 72 h
[2] = Antiproliferative activity against human HS27 cells expressing wild type HER2 incubated for 72 hrs by MTS assay; type: cell-based
[3] = biological target: T1, Receptor tyrosine-protein kinase erbB-2 (Homo sapiens, UniProt P04626); experiment: Inhibition of GST-tagged human HER2 catalytic domain expressed in insect cells
T1 sequence (P04626 whole entry, the tested form may be a part): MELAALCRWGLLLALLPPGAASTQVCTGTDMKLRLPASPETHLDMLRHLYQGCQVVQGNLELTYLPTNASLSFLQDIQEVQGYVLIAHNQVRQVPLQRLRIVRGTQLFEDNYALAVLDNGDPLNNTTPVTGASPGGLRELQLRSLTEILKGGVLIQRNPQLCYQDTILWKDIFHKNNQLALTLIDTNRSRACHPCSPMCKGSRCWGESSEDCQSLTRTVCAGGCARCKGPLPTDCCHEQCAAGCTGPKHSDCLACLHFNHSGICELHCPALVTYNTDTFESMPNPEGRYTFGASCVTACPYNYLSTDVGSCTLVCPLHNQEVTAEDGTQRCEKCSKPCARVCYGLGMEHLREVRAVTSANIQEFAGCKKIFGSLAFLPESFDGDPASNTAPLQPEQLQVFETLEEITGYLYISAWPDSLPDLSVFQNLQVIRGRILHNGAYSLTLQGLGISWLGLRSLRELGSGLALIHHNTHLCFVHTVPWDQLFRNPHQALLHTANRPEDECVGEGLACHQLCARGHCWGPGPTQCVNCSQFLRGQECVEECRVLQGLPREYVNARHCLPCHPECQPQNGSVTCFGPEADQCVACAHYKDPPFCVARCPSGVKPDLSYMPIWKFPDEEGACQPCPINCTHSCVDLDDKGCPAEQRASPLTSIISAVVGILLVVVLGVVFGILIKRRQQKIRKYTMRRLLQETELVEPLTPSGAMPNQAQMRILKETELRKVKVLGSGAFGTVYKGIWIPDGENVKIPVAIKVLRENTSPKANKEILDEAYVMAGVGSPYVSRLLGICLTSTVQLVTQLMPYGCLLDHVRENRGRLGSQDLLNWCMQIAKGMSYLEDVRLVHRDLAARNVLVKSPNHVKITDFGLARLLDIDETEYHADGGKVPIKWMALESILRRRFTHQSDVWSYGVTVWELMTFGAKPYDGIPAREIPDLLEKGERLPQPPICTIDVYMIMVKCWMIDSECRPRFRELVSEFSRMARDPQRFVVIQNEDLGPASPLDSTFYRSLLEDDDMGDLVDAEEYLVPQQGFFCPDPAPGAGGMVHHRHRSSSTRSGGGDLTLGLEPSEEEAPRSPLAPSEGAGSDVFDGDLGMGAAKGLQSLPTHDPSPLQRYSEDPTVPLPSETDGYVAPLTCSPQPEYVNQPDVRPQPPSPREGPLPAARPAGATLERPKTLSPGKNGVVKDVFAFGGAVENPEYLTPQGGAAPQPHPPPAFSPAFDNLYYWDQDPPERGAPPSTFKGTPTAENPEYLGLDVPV

A-431 [4] = experiment: Antiproliferative activity against human A431 cells expressing wild type EGFR incubated for 72 hrs by MTS assay; type: functional, cell-based; settings: A-431, 72 h
SK-BR-3 = experiment: Antiproliferative activity against human SKBR3 cells expressing wild type HER2 incubated for 72 hrs by MTS assay; type: functional, cell-based; settings: SK-BR-3, 72 h
NCI-N87 = experiment: Antiproliferative activity against human NCI-N87 cells expressing wild type EGFR and HER2 incubated for 72 hrs by MTS assay; type: functional, cell-based; settings: NCI-N87, 72 h
[5] = Antiproliferative activity against human NCI-H1819 cells expressing wild type HER2 incubated for 72 hrs by MTS assay; type: functional, cell-based; settings: NCI-H1819, 72 h
A549 = experiment: Antiproliferative activity against human A549 cells; type: functional, cell-based
MCF7 [6] = experiment: Antiproliferative activity against human MCF7 cells expressing wild type HER2 incubated for 72 hrs by MTS assay; type: functional, cell-based; settings: MCF7, 72 h
BT-474 = experiment: Antiproliferative activity against human BT474 cells expressing wild type HER2 incubated for 72 hrs by MTS assay; type: functional, cell-based; settings: BT-474, 72 h
[7] = biological target: Epidermal growth factor receptor (Homo sapiens, UniProt P00533, L858R); experiment: Inhibition of human EGFR L858R mutant expressed in mouse Ba/F3 cells; type: cell-based
Epidermal growth factor receptor (Homo sapiens, UniProt P00533, L858R), sequence (P00533 25-1210 L858R limits assumed): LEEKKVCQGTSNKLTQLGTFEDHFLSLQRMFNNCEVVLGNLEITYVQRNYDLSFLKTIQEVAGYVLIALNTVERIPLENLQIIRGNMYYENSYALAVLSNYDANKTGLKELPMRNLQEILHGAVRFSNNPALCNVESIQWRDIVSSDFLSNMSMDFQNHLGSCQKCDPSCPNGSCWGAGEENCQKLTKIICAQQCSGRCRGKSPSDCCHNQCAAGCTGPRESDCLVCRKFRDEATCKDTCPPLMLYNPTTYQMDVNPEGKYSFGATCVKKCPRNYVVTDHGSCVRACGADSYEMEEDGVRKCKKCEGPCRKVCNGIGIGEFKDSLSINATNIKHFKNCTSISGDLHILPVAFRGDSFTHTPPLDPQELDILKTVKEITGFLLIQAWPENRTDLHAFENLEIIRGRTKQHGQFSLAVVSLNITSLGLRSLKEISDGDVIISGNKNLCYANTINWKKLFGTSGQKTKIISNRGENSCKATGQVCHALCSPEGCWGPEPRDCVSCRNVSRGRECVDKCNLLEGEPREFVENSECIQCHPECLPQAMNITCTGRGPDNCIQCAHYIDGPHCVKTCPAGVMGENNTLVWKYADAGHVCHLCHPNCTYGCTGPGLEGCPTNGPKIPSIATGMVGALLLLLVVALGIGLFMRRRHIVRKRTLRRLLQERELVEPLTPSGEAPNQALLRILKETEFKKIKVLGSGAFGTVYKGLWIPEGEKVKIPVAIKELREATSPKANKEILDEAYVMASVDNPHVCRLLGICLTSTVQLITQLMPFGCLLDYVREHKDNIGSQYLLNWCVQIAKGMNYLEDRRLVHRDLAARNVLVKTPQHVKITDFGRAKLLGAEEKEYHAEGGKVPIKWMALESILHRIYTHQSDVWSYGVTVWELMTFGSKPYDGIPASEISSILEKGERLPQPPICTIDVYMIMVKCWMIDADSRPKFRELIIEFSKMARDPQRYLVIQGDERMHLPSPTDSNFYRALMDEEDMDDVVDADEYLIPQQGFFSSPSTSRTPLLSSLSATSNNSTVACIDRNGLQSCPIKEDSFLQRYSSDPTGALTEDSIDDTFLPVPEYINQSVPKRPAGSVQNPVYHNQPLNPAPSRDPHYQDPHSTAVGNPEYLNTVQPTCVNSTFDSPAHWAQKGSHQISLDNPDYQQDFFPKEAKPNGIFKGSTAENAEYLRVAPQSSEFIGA

[8] = biological target: Epidermal growth factor receptor (Homo sapiens, UniProt P00533, T790M); experiment: Inhibition of human EGFR T790M mutant expressed in mouse Ba/F3 cells; type: cell-based
Epidermal growth factor receptor (Homo sapiens, UniProt P00533, T790M), sequence (P00533 25-1210 T790M limits assumed): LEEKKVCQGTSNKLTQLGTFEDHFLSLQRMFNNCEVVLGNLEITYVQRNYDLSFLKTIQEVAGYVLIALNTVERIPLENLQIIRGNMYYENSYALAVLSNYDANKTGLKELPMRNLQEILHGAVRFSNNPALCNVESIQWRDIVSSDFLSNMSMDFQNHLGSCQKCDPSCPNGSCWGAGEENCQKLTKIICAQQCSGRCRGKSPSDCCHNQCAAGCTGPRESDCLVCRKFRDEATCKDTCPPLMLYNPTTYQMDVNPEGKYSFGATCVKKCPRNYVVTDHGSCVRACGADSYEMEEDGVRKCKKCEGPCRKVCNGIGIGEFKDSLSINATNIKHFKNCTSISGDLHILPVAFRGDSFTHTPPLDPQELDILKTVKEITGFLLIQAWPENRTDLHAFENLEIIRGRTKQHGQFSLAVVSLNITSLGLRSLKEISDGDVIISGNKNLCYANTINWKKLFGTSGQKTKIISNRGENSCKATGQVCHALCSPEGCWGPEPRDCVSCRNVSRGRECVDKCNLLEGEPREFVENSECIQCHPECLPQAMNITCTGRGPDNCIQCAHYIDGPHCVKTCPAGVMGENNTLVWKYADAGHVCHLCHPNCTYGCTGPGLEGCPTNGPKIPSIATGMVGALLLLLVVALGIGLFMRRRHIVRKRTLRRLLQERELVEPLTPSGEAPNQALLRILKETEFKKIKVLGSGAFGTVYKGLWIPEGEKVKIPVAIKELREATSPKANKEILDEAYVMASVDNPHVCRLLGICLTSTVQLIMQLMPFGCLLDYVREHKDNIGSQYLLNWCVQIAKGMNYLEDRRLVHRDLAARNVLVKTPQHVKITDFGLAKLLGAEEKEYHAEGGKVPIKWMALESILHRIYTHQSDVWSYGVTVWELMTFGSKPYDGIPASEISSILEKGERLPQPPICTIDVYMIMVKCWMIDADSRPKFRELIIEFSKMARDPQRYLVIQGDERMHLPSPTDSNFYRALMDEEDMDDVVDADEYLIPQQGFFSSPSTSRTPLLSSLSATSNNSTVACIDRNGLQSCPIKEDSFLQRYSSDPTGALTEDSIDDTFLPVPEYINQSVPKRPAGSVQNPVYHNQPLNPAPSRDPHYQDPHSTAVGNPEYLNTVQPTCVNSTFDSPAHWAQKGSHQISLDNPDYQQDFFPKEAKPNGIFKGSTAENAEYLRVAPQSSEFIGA

[9] = biological target: Epidermal growth factor receptor (Homo sapiens, UniProt P00533, L858R/T790M); experiment: Inhibition of human EGFR T790M/L858R mutant expressed in mouse Ba/F3 cells; type: cell-based
[10] = biological target: T2, Epidermal growth factor receptor (Homo sapiens, UniProt P00533); experiment: Inhibition of GST-tagged human EGFR catalytic domain expressed in insect cells
T2 sequence (P00533 whole entry, the tested form may be a part): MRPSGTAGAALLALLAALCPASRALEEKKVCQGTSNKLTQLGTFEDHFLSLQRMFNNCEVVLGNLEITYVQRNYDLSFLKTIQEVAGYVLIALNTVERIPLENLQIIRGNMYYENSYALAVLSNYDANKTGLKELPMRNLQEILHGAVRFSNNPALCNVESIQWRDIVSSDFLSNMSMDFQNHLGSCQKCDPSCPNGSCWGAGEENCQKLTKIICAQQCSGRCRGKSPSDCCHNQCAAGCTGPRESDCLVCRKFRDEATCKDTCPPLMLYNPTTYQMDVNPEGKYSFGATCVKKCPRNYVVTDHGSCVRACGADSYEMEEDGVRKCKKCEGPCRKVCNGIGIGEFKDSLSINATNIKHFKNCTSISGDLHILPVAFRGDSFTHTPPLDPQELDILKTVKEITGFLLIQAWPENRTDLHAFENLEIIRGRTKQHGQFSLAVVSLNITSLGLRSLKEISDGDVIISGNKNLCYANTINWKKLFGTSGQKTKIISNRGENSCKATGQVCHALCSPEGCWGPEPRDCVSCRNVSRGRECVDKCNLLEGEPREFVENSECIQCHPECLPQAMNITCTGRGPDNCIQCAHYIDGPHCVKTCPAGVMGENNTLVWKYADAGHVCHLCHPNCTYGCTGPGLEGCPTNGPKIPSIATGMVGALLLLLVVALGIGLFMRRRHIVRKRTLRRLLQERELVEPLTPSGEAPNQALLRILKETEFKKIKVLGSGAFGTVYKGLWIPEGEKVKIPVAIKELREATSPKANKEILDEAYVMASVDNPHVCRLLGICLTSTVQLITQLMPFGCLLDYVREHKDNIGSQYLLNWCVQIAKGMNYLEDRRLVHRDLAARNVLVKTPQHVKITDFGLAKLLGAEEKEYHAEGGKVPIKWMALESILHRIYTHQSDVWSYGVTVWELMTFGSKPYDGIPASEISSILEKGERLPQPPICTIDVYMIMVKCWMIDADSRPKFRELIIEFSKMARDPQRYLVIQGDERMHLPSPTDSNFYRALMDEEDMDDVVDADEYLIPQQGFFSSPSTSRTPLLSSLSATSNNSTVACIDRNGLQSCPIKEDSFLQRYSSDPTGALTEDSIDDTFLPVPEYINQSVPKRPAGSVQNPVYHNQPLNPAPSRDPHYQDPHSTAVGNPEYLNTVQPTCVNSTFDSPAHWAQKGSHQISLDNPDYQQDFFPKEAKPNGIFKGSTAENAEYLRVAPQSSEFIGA

[11] = biological target: Epidermal growth factor receptor (Homo sapiens, UniProt P00533, T790M/L858R); experiment: Inhibition of EGFR T790M/L858R mutant (unknown origin)
[12] = biological target: T2, Epidermal growth factor receptor; experiment: Inhibition of EGFR (unknown origin)
NCI-H1975 [13] = experiment: Antiproliferative activity against human NCI-H1975 cells expressing EGFR T790M/L858R mutant; type: functional, cell-based
A-431 [14] = experiment: Antiproliferative activity against human A431 cells expressing wild type EGFR; type: functional, cell-based
MCF7 [15] = experiment: Antiproliferative activity against human MCF7 cells expressing wild type HER2; type: functional, cell-based
[16] = biological target: T1, Receptor tyrosine-protein kinase erbB-2; experiment: Inhibition of HER2 (unknown origin)

Compound: C=CC(=O)N1CCC(Oc2cc3c(Nc4ccc(Cl)c(Cl)c4F)ncnc3cc2OC)CC1 [POZIOTINIB]
- IC50 (NCI-H1975 [1]): 0.0057 µM
- GI50 at 72 h [2]: 3.83 µM
- IC50 [3]: 0.0053 µM
- IC50 (A-431 [4]): 0.0009 µM
- IC50 (SK-BR-3): 0.001 µM

Compound: CCOc1cc2ncnc(Nc3ccc(OCc4cccc(F)c4)c(Cl)c3)c2cc1NC(=O)/C=C/[C@@H]1CCCN1
- IC50 (NCI-H1975 [1]): 0.034 µM
- IC50 (NCI-N87): 0.047 µM
- IC50 (A-431 [4]): 0.062 µM

Compound: C=CC(=O)Nc1cc2c(Nc3ccc(F)c(Cl)c3)ncnc2cc1OCCCN1CCOCC1 [CANERTINIB]
- IC50 (NCI-H1975 [1]): 0.101 µM

Compound: COc1cc2ncnc(Nc3ccc(F)c(Cl)c3)c2cc1NC(=O)/C=C/CN1CCCCC1 [DACOMITINIB ANHYDROUS]
- IC50 (NCI-H1975 [1]): 0.44 µM
- IC50 [5]: 0.029 µM

Compound: O=C(Nc1ccc2ncnc(Nc3cccc(Br)c3)c2c1)c1ccc(C(F)(F)F)cc1O
- IC50 (A-431 [4]): 0.67 µM
- IC50 (A549): 1.64 µM
- IC50 (MCF7 [6]): 0.49 µM

Compound: CN(C)C/C=C/C(=O)Nc1cc2c(Nc3ccc(F)c(Cl)c3)ncnc2cc1O[C@@H]1CCOC1
- IC50 (NCI-H1975 [1]): 0.092 µM
- IC50 (BT-474): 0.054 µM

Compound: C=CC(=O)Nc1cc2c(Nc3ccc(F)c(Cl)c3)ncnc2cc1C#CC(C)(C)N1CCN(C)CC1 [AV-412 FREE BASE]
- IC50 [3]: 0.019 µM
- IC50 (A-431 [4]): 0.1 µM
- IC50 [7]: 0.00051 µM
- IC50 [8]: 0.00079 µM
- IC50 [9]: 0.0023 µM
- IC50 [10]: 0.0014 µM

Compound: CC(C)(O)CC(=O)NCCc1ccc2ncnc(Nc3ccc(Oc4cccc(C(F)(F)F)c4)c(Cl)c3)c2c1
- IC50 [11]: 0.033 µM
- IC50 [12]: 0.0098 µM
- IC50 (NCI-H1975 [13]): 0.127 µM
- IC50 (A-431 [14]): 0.041 µM
- IC50 (MCF7 [15]): 0.094 µM
- IC50 [16]: 0.019 µM
